Common to all, as to assay: Broth dilution MIC
Holding throughout (type): cell-based
Background: Dilution methods test growth across graded concentrations, often in twofold steps.

One assay deals with E. coli GC 4559. The note with it: Escherichia coli, GC4559; E. coli GC 4559; Mueller-Hinton broth, 18 hours at 35° C.; read-out: Antimicrobial Activity (MIC). The procedure, abridged: (§1)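 Broth dilution in Mueller-Hinton medium with 18 h incubation at 35° C.; the minimal concentration that stops growth of each strain is the MIC.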
In a further assay the test system is E. faecalis GC 842. The note with it: Enterococcus faecalis, GC842; E. faecalis GC 842; Mueller-Hinton broth, 18 hours at 35° C.; read-out: Antimicrobial Activity (MIC). In short, it runs like this: as §1
The subject of the next assay is E. coli GC 2203. The note with it: Escherichia coli, GC2203; E. coli GC 2203; Mueller-Hinton broth, 18 hours at 35° C.; read-out: Antimicrobial Activity (MIC). In short, it runs like this: as §1
A further assay relates to E. faecalis GC 4555. The note with it: Enterococcus faecalis, GC4555; E. faecalis GC 4555; Mueller-Hinton broth, 18 hours at 35° C.; read-out: Antimicrobial Activity (MIC). In short, it runs like this: as §1
A further assay concerns S. aureus GC 4536. The note with it: Staphylococcus aureus, GC4536; S. aureus GC 4536; Mueller-Hinton broth, 18 hours at 35° C.; read-out: Antimicrobial Activity (MIC). In short, it runs like this: as §1
For a further assay, the system named is P. aeruginosa GC 2214. The note with it: Pseudomonas aeruginosa, GC2214; P. aeruginosa GC 2214; Mueller-Hinton broth, 18 hours at 35° C.; read-out: Antimicrobial Activity (MIC). In short, it runs like this: as §1
The test system of a further assay is E. coli GC 3226. The note with it: Escherichia coli, GC3226; E. coli GC 3226; Mueller-Hinton broth, 18 hours at 35° C.; read-out: Antimicrobial Activity (MIC). In short, it runs like this: as §1
The test system of the next assay is K. pneumoniae GC 4534. The note with it: Klebsiella pneumoniae, GC4534; K. pneumoniae GC 4534; Mueller-Hinton broth, 18 hours at 35° C.; read-out: Antimicrobial Activity (MIC). In short, it runs like this: as §1
The next assay relates to S. marcescens GC 4077. The note with it: Serratia marcescens, GC4077; S. marcescens GC 4077; Mueller-Hinton broth, 18 hours at 35° C.; read-out: Antimicrobial Activity (MIC). The procedure, abridged:
as §1

In a further assay the test system is P. aeruginosa GC 4532. The note with it: Pseudomonas aeruginosa, GC4532; P. aeruginosa GC 4532; Mueller-Hinton broth, 18 hours at 35° C.; read-out: Antimicrobial Activity (MIC). In short, it runs like this: as §1
For a further assay, the system named is CNS GC 4547. The note with it: CNS GC 4547; Mueller-Hinton broth, 18 hours at 35° C.; read-out: Antimicrobial Activity (MIC). The procedure, abridged:
as §1

The next assay concerns E. coli GC 4560. The note with it: Escherichia coli, GC4560, 18 h, read-out: Antimicrobial Activity (MIC). In short, it runs like this:
as §1

The next assay has as its system E. cloacae GC 3783. The note with it: Enterobacter cloacae, GC3783; E. cloacae GC 3783; Mueller-Hinton broth, 18 hours at 35° C.; read-out: Antimicrobial Activity (MIC). In short, it runs like this:
as §1

The subject of another assay is CNS GC 4538. The note with it: CNS GC 4538; Mueller-Hinton broth, 18 hours at 35° C.; read-out: Antimicrobial Activity (MIC). The procedure, abridged:
as §1

The subject of another assay is S. aureus GC 2216. The note with it: Staphylococcus aureus, GC2216; S. aureus GC 2216; Mueller-Hinton broth, 18 hours at 35° C.; read-out: Antimicrobial Activity (MIC). The procedure, abridged:
as §1

In a further assay the test system is P. rettgeri GC 4530. The note with it: Providencia rettgeri, GC4530; P. rettgeri GC 4530; Mueller-Hinton broth, 18 hours at 35° C.; read-out: Antimicrobial Activity (MIC). The procedure, abridged: as §1
The next assay relates to E. faecalis GC 2242. The note with it: Enterococcus faecalis, GC2242; E. faecalis GC 2242; Mueller-Hinton broth, 18 hours at 35° C.; read-out: Antimicrobial Activity (MIC). In short, it runs like this: as §1
The test system of the next assay is CNS GC 4537. The note with it: CNS GC 4537; Mueller-Hinton broth, 18 hours at 35° C.; read-out: Antimicrobial Activity (MIC). The procedure, abridged:
as §1

In another assay the test system is S. aureus GC 1131. The note with it: Staphylococcus aureus, GC1131; S. aureus GC 1131; Mueller-Hinton broth, 18 hours at 35° C.; read-out: Antimicrobial Activity (MIC). In short, it runs like this:
as §1

The subject of the next assay is M. morganii GC 4531. The note with it: Morganella morganii, GC4531; M. morganii GC 4531; Mueller-Hinton broth, 18 hours at 35° C.; read-out: Antimicrobial Activity (MIC). In short, it runs like this: as §1

Values after ≈ are worked out from the molar mass of the structure shown.

Consider `CCCCCNC[C@H]1OC(O[C@H](C(NCCCNC(=O)C(NC(=O)C(NC(=O)NC(C(=O)O)C(C)C)C2CCNC(=N)N2)C(O)C(C)C)C(=O)O)[C@H]2O[C@@H](n3ccc(=O)[nH]c3=O)[C@H](O)[C@@H]2O)[C@H](OC)[C@H]1O` (stereo partly drawn) [Example 18, 16-[(R)-{(2S,3S,4R,5R)-5-[2,4-Dioxo-3,4-dihydro-1 (2H)-pyrimidinyl]-3,4-dihydroxytetrahydro-2-furanyl}({(3R,4S,5R)-4-hydroxy-3-methoxy-5-[(pentylamino)methyl]tetrahydro-2-furanyl}oxy)methyl]-9-(1-hydroxy-2-methylpropyl)-6-(2-iminohexahydro-4-pyrimidinyl)-2-isopropyl-4,7,10-trioxo-3,5,8,11,15-pentaazaheptadecane-1,17-dioic Acid], for which the MIC in the assay on E. coli GC 4559, in the assay on E. faecalis GC 842, in the assay on E. coli GC 2203, in the assay on E. faecalis GC 4555, in the assay with S. aureus GC 4536 and in the assay with P. aeruginosa GC 2214 was > 32 µg/mL each time. Also, the MIC in the assay on E. coli GC 3226, in the assay with K. pneumoniae GC 4534, in the assay with S. marcescens GC 4077, in the assay on P. aeruginosa GC 4532, in the assay with CNS GC 4547 and in the assay on E. coli GC 4560 was > 32 µg/mL throughout. The minimal inhibitory concentration (MIC) with E. cloacae GC 3783, in the assay on CNS GC 4538, with S. aureus GC 2216, in the assay on P. rettgeri GC 4530, in the assay with E. faecalis GC 2242 and with CNS GC 4537 was > 32 µg/mL in each case. Further, the minimal inhibitory concentration (MIC) with S. aureus GC 1131 and in the assay on M. morganii GC 4531 was > 32 µg/mL each time.
For `CO[C@H]1C(O[C@H](C(NCCCNC(=O)C(NC(=O)C(NC(=O)NC(C(=O)O)C(C)C)C2CCNC(=N)N2)C(O)C(C)C)C(=O)O)[C@H]2O[C@@H](n3ccc(=O)[nH]c3=O)[C@H](O)[C@@H]2O)O[C@H](CNCc2ccc(-c3ccccc3)cc2)[C@@H]1O` (stereo partly drawn) [Example 19A, 16-((R)-[((3R,4S,5R)-5-{[([1,1′-Biphenyl]-4-ylmethyl)amino]methyl}-4-hydroxy-3-methoxytetrahydro-2-furanyl)oxy]{(2S,3S,4R,5R)-5-[2,4-dioxo-3,4-dihydro-1 (2H)-pyrimidinyl]-3,4-dihydroxytetrahydro-2-furanyl}methyl)-9-(1-hydroxy-2-methylpropyl)-6-(2-iminohexahydro-4-pyrimidinyl)-2-isopropyl-4,7,10-trioxo-3,5,8,11,15-pentaazaheptadecane-1,17-dioic Acid], the minimal inhibitory concentration (MIC) in the assay on E. coli GC 4559, in the assay with E. faecalis GC 842, with E. coli GC 2203, in the assay on E. faecalis GC 4555, in the assay with S. aureus GC 4536 and with P. aeruginosa GC 2214 was > 32 µg/mL in each case. Moreover, the minimal inhibitory concentration (MIC) is > 32 µg/mL with E. coli GC 3226; > 32 µg/mL in the assay with K. pneumoniae GC 4534; > 32 µg/mL in the assay on S. marcescens GC 4077; > 32 µg/mL in the assay with P. aeruginosa GC 4532; > 32 µg/mL in the assay on CNS GC 4547; 16 µg/mL (≈ 14.4 µM) with E. coli GC 4560. Also, the MIC with E. cloacae GC 3783, in the assay with CNS GC 4538, in the assay with S. aureus GC 2216, in the assay on P. rettgeri GC 4530, in the assay with E. faecalis GC 2242 and in the assay with CNS GC 4537 was > 32 µg/mL throughout. The MIC in the assay with S. aureus GC 1131 and in the assay on M. morganii GC 4531 was > 32 µg/mL throughout.
On to `CO[C@H]1C(O[C@H](C(C(=O)O)N(CCCNC(=O)C(NC(=O)C(NC(=O)NC(C(=O)O)C(C)C)C2CCNC(=N)N2)C(O)C(C)C)Cc2ccc(-c3ccccc3)cc2)[C@H]2O[C@@H](n3ccc(=O)[nH]c3=O)[C@H](O)[C@@H]2O)O[C@H](CNCc2ccc(-c3ccccc3)cc2)[C@@H]1O` (stereo partly drawn) [Example 19B, 15-([1,1′-Biphenyl]-4-ylmethyl)-16-((R)-[((3R,4S,5R)-5-{[([1,1′-biphenyl]-4-ylmethyl)amino]methyl}-4-hydroxy-3-methoxytetrahydro-2-furanyl)oxy]{(2S,3S,4R,5R)-5-[2,4-dioxo-3,4-dihydro-1 (2H)-pyrimidinyl]-3,4-dihydroxytetrahydro-2-furanyl}methyl)-9-(1-hydroxy-2-methylpropyl)-6-(2-iminohexahydro-4-pyrimidinyl)-2-isopropyl-4,7,10-trioxo-3,5,8,11,15-pentaazaheptadecane-1,17-dioic Acid], for which the MIC in the assay on E. coli GC 4559, with E. faecalis GC 842, in the assay on E. coli GC 2203, in the assay on E. faecalis GC 4555, with S. aureus GC 4536 and in the assay on P. aeruginosa GC 2214 was > 32 µg/mL throughout. Besides, the MIC in the assay with E. coli GC 3226, in the assay on K. pneumoniae GC 4534, in the assay with S. marcescens GC 4077, in the assay with P. aeruginosa GC 4532, in the assay with CNS GC 4547 and in the assay on E. coli GC 4560 was > 32 µg/mL throughout. The minimal inhibitory concentration (MIC) in the assay on E. cloacae GC 3783, in the assay on CNS GC 4538, in the assay on S. aureus GC 2216, in the assay with P. rettgeri GC 4530, with E. faecalis GC 2242 and in the assay on CNS GC 4537 was > 32 µg/mL each time. In addition, the MIC in the assay on S. aureus GC 1131 and with M. morganii GC 4531 was > 32 µg/mL each time.
Turning to `CO[C@H]1C(O[C@H](C(NCCCNC(=O)C(NC(=O)C(NC(=O)NC(C(=O)O)C(C)C)C2CCNC(=N)N2)C(O)C(C)C)C(=O)O)[C@H]2O[C@@H](n3ccc(=O)[nH]c3=O)[C@H](O)[C@@H]2O)O[C@H](CNCc2ccccc2)[C@@H]1O` (stereo partly drawn) [Example 20A, 16-((R)-({(3R,4S,5R)-5-[(Benzylamino)methyl]-4-hydroxy-3-methoxytetrahydro-2-furanyl}oxy){(2S,3S,4R,5R)-5-[2,4-dioxo-3,4-dihydro-1 (2H)-pyrimidinyl]-3,4-dihydroxytetrahydro-2-furanyl}methyl)-9-(1-hydroxy-2-methylpropyl)-6-(2-iminohexahydro-4-pyrimidinyl)-2-isopropyl-4,7,10-trioxo-3,5,8,11,15-pentaazaheptadecane-1,17-dioic acid], the minimum inhibitory concentration (MIC) in the assay with E. coli GC 4559, with E. faecalis GC 842, with E. coli GC 2203, with E. faecalis GC 4555, in the assay on S. aureus GC 4536 and in the assay with P. aeruginosa GC 2214 was > 32 µg/mL each time. The minimum inhibitory concentration (MIC) with E. coli GC 3226, in the assay with K. pneumoniae GC 4534, with S. marcescens GC 4077, in the assay on P. aeruginosa GC 4532, in the assay on CNS GC 4547 and with E. coli GC 4560 was > 32 µg/mL in each case. Further, the minimum inhibitory concentration (MIC) in the assay on E. cloacae GC 3783, in the assay on CNS GC 4538, in the assay on S. aureus GC 2216, in the assay with P. rettgeri GC 4530, in the assay with E. faecalis GC 2242 and in the assay on CNS GC 4537 was > 32 µg/mL each time. The MIC with S. aureus GC 1131 and in the assay on M. morganii GC 4531 was > 32 µg/mL in each case.

One may read the MIC as the least concentration at which growth counts as inhibited.

The values above are taken from US6727232B2, “Nucleoside peptide antibiotics of AA-896” (Wyeth Holdings Corporation, priority 2001, dated 2004).
